Earlier results on one compound are cited in patent publication US20220249506A1, “Meloxicam-Containing Granulated Product” (SSP Co., Ltd., priority 2019, published 2022).

For the series the following is noted: low pH range of pH 5.0 or less.

As for `Cc1cnc(NC(=O)C2=C(O)c3ccccc3S(=O)(=O)N2C)s1` [meloxicam], the Solubility in water entry is recorded as “almost insoluble in water”.
